In article PMC11162409, “Phenylalanine as an effective stabilizer and aggregation inhibitor of Bacillus amyloliquefaciens alpha-amylase” (AMB Express, 2024):

Biological target: Bacillus amyloliquefaciens alpha-amylase (BAA) (Bacillus amyloliquefaciens, UniProt P00692)
Assay: Bernfeld DNS assay of starch hydrolysis ([…] nm) with commercial enzyme
Type: biochemical

Sequence of Bacillus amyloliquefaciens alpha-amylase (BAA) (P00692 32-514): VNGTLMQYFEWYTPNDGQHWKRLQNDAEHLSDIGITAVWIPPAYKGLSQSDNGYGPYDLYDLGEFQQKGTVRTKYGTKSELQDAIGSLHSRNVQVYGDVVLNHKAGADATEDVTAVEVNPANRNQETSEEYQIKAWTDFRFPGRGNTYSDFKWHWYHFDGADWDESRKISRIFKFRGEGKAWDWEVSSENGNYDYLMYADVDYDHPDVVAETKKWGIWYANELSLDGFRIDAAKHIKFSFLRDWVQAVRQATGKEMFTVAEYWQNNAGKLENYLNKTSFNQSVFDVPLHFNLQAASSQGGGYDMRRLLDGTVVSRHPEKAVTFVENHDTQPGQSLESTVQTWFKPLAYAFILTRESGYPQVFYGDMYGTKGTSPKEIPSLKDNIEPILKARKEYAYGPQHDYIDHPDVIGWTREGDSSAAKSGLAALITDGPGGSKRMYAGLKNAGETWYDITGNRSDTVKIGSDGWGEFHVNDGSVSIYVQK

N[C@@H](Cc1ccc(O)cc1)C(=O)O [Tyr, tyrosine]
IC50: ~100 mM
